# Experimental data as given in patent US9259432B1, “Composition and methods for targeted delivery of a therapeutic compound to the brain or spinal cord of a subject for treatment of neurodegenerative diseases” (Parminder J. S. Vig, priority 2011, dated 2016).
# Legend:
# [1] = IgG levels in plasma by ELISA; assay type: in vivo, mice; conditions: 100 mg/kg, treated multiple times, no heat; samples diluted 1:50,000
# Description: IgG levels in plasma of mice treated withof SynB1-ELP-GGC (100 mg/kg) and SynB1-ELP-TRTK (100 mg/kg) were obtained. Mice were treated multiple times without induction of hyperthermia. IgG levels were measured using ELISA. Samples were diluted 1:50,000 and compared against a standard curve generated using a mouse IgG standard.
# SCA1/+ mice = assay: Bar cross test; assay type: in vivo; conditions: IP, 10 doses every other day for 3 wks, with and without heat
# Description: A minimum of five 2 wks old SCA1/+mice were treated IP with vehicle (saline), ELP-GGC or ELP-TRTK peptides multiple times (total 10 doses) every other day for 3 wks. Some animals were subjected to hyperthermia. After completion of the treatments, animals were subjected to behavioral tests.
# Bar cross test. The bar-crossing apparatus for testing balance and fine motor coordination consisted of a horizontal U-shaped platform made of wood supported on 30 cm legs. The two parallel 30-cm-long bars of the U were wide enough (18 mm) for the mice to walk easily, whereas the piece connecting them, the challenge bar, was also 30 cm long but only 2 mm wide. Animals were placed on one of the wide bars and allowed to move about on the apparatus for 5 min. After the spontaneous activity portion of the bar cross test, animal were subjected to a forced task. In this task, the mice were placed in the middle of the challenge bar in order to force a crossing attempt. A maximum of 120 sec was allowed for mice to stay on the bar, and the latency to fall (on a padded surface; height=30 cm) or cross (Cross) successfully was measured in seconds. The surface of the apparatus was cleaned with mild soap solution and air-dried between mice. […]
# [2] = system: differentiated GFP-ATXN1[82Q] SHSY5Y cells; assay: Oxyblot of S100B induced oxidized proteins; assay type: cell-based; conditions: 50 μM pretreatment 1 hr, then 5 μM S100B 2 hrs; oxidized protein/β-tubulin
# Description: FIG. 16: (a) GFP-ATXN1[82Q] and (b) GFP-ATXN1[30Q] SHSY5Y stable cells were placed on 12-well plates and subjected to treatment with 25 nM TPA for 3 days to produce differentiated SHSY5Y cell lines. Next, the cells were pretreated with 50 μM Synb1-ELP-TRTK for 1 hr then treated with 5 μM S100B for 2 hrs or treated with 150 μM H2O2 for 2 hrs, where control cells were treated with serum free media for 3 hrs. Then the cells were lysed and analyzed with the Oxyblot kit and a β-tubulin antibody. Shown is the resulting oxyblot/western blot data. (c) Optical densities of the protein bands were taken using ImageJ software. Graphs shown the ratio of oxidized protein/β-tubulin protein normalized to the control. Statistics were taken using the student's t-test. * GFP-ATXN1[82Q]: S100B vs Synb1-ELP-TRTK+S100B, P<0.05. ψ GFP-ATXN1[82Q]: H2O2 vs GFP-ATXN1[30Q]: H2O2, P<0.05.
# GFP-ATXN1[82Q] or GFP-ATXN1[30Q] stable cells were placed on 12-well plates at a concentration of 60,000 cells per well. Cells were treated with 25 nM TPA for 3 days to produce differentiated SHSY5Y cell lines. […] Cell lysates were analyzed with the Oxyblot kit according to manufacturer's protocol ([…]) and with a β-tubulin antibody (Sigma), where 5 μgs of protein was loaded in each well of 4-20% acrylamide gel (Bio-Rad Laboratories, Hercules, Calif., USA). […]
substance,measurement,setting,value
"Synb1-ELP-TRTK: thermally responsive S100B inhibitory polypeptide: Synb1 cell penetrating peptide, elastin-like polypeptide (ELP) and TRTK12 peptide fused","IgG level in plasma, OD Value",[1],0.2552
same,"hyperactivity, slip frequency, Sniff Up and down frequency",SCA1/+ mice,suppresses these activities
same,S100B's impact on the level of oxidized proteins,[2],significantly blocked
